Experimental findings from US9573956B2, “Compounds as dual inhibitors of phosphodiesterases and histone deacetylases” (FUNDACIÓN PARA LA INVESTIGACIÓN MÉDICA APLICADA, priority 2013, dated 2017) are described below.

What is called IC50 is the concentration that inhibits the measured activity by half.

Test [1] relates to acetylated histone 3 at Lys9 (AcH3K9). Kind of test: HDAC activity in wild type primary neurons (Western blot AcH3K9). The format is cell-based, mouse. As to conditions: Mus musculus, Neuron, 0.5 h, 30 min, EC50 = 50% increase in AcH3K9 over basal, read-out: AcH3 (EC50). On the technique in general: A western blot detects proteins with antibodies after separation by electrophoresis.

Test [2] concerns phosphorylated tau (p-tau). The experiment in a line: AD-related markers in Tg2576 neurons: pTau. Type of test: cell-based. Particulars: Mus musculus, Neuron, 48 h, treated two days, EC50 = 50% decrease in pTau over basal.
For test [3], the target named is T1, PDE9A isoform b (Homo sapiens, UniProt O76083).
T1 construct: they are full-length with N-terminal GST tag; GST (N); purchased BPS Biosciences 60090; host or cells: baculovirus infected Sf9 cells
The experiment in a line: PDE enzyme activity assay (HTRF cGMP), PDE9A. Type of test: biochemical. As to conditions: recombinant enzyme; read-out: PDE9A inhibition (IC50). On the technique in general: TR-FRET usually uses a lanthanide donor and a delayed reading to cut background.

T1 sequence (O76083 1-533 isoform O76083-2): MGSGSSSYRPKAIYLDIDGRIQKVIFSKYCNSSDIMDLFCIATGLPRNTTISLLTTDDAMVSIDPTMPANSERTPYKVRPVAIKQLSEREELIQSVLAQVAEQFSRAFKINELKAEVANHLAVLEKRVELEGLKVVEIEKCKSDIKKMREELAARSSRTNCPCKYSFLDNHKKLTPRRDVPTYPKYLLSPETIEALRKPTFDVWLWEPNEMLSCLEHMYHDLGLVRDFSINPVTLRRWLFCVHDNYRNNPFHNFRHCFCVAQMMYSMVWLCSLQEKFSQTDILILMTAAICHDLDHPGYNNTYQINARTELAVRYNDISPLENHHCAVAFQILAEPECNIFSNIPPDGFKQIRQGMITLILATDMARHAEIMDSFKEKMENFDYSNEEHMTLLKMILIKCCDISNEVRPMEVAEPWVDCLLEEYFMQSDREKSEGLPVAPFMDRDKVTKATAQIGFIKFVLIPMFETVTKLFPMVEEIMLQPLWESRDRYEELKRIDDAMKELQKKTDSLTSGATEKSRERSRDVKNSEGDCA

As for `CCCc1nn(C)c2c(=O)[nH]c(-c3cc(CC4CC(C(=O)NO)C4)ccc3OCC)nc12` (racemic) [Example 1-19, 3-[[4-ethoxy-3-(1-methyl-7-oxo-3-propyl-6H-pyrazolo[4,3-d]pyrimidin-5-yl)phenyl]methyl]cyclobutanecarbohydroxamic acid], the EC50 in test [1] and in test [2] was 0.01 to 1 µM throughout. Take `CCCc1nn(C)c2c(=O)[nH]c(-c3cc(S(=O)(=O)N4CCN(c5ncc(C(=O)NO)cn5)CC4)ccc3OCC)nc12` [Example 1-06, 2-(4-[3-(6,7-Dihydro-1-methyl-7-oxo-3-propyl-1H-pyrazolo[4,3-d]pyrimidin-5-yl)-4-ethoxyphenylsulfonyl]piperazin-1-yl)-N-hydroxypyrimidine-5-carboxamide]: the EC50 in test [1] is 0.01 to 1 µM. In addition, the concentration for half-maximal inhibition (IC50) in test [3] is over 10 µM.

For `CCCc1nn(C)c2c(=O)[nH]c(-c3cc(Cc4ccc(C(=O)NO)cc4)ccc3OCC)nc12` [Example 1-15, 4-[[4-ethoxy-3-(1-methyl-7-oxo-3-propyl-6H-pyrazolo[4,3-d]pyrimidin-5-yl)phenyl]methyl]benzenecarbohydroxamic acid], in test [1], the EC50 was in the range of 0.01 to 1 µM. With `CCCc1nn(C)c2c(=O)[nH]c(-c3cc(Cc4ccc(C(=O)NO)s4)ccc3OCC)nc12` [Example 1-16], the EC50 in test [1] and in test [2] was 0.01 to 1 µM each time.
